Source: PubChem BioAssay (NCI)
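Compound exposure: 48 hours, 5 concentrations, 96-well plates. TGI: concentration producing complete growth inhibition.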

Assays:
Assay in all cases: DTP human tumour cell line panel, 48 h
[1] = system: RPMI-8226 leukemia
[2] = system: SR leukemia
[3] = system: NCI-H522 lung
[4] = system: XF 498 CNS
[5] = system: U251 CNS
[6] = system: MALME-3M melanoma
[7] = system: K-562 leukemia
[8] = system: NCI-H23 lung
[9] = system: CAKI-1 renal
[10] = system: RXF 393 renal
[11] = system: SNB-75 CNS
[12] = system: RXF-631 renal
[13] = system: DMS 114 small cell lung
[14] = system: SK-MEL-5 melanoma
[15] = system: OVCAR-3 ovarian
[16] = system: HOP-92 NSCLC
[17] = system: MOLT-4 leukemia
[18] = system: SK-OV-3 ovarian
[19] = system: ACHN renal
[20] = system: IGROV1 ovarian
[21] = system: HOP-18 NSCLC
[22] = system: M14 melanoma
[23] = system: SF-539 CNS
[24] = system: SNB-19 CNS
[25] = system: A549 NSCLC
[26] = system: NCI-H460 lung
[27] = system: OVCAR-5 ovarian
[28] = system: OVCAR-4 ovarian
[29] = system: LOX IMVI melanoma
[30] = system: HOP-62 NSCLC
[31] = system: NCI-H226 lung
[32] = system: HCC-2998 colon
[33] = system: UACC-257 melanoma
[34] = system: HL-60(TB) leukemia
[35] = system: LXFL 529 NSCLC
[36] = system: DMS 273 small cell lung
[37] = system: TK-10 renal
[38] = system: M19-MEL melanoma
[39] = system: SK-MEL-28 melanoma
[40] = system: COLO 205 colon
[41] = system: A498 renal
[42] = system: HCT-15 colon
[43] = system: UACC-62 melanoma
[44] = system: OVCAR-8 ovarian
[45] = system: SF-268 CNS
[46] = system: SNB-78 CNS
[47] = system: SF-295 CNS
[48] = system: CCRF-CEM leukemia
[49] = system: KM20L2 colon
[50] = system: KM12 colon
[51] = system: SK-MEL-2 melanoma
[52] = system: 786-0 renal
[53] = system: SN12C renal
[54] = system: EKVX NSCLC
[55] = system: HT29 colon
[56] = system: UO-31 renal
[57] = system: HCT-116 colon
[58] = system: DLD-1 colon

CCOc1ccc2nc(NC(=O)C(=O)C(C#N)CC(C)(C)C=O)sc2c1 (stereo not drawn)
TGI [1]: > 100 µM
TGI [2]: 46 µM
TGI [3]: > 100 µM
TGI [4]: > 100 µM
TGI [5]: > 100 µM
TGI [6]: > 100 µM
TGI [7]: > 100 µM
TGI [8]: > 100 µM
TGI [9]: > 100 µM
TGI [10]: > 100 µM
TGI [11]: > 100 µM
TGI [12]: > 100 µM
TGI [13]: > 100 µM
TGI [14]: > 100 µM
TGI [15]: > 100 µM
TGI [16]: > 100 µM
TGI [17]: > 100 µM
TGI [18]: > 100 µM
TGI [19]: > 100 µM
TGI [20]: > 100 µM
TGI [21]: > 100 µM
TGI [22]: > 100 µM
TGI [23]: > 100 µM
TGI [24]: > 100 µM
TGI [25]: > 100 µM
TGI [26]: > 100 µM
TGI [27]: > 100 µM
TGI [28]: > 100 µM
TGI [29]: > 100 µM
TGI [30]: > 100 µM
TGI [31]: > 100 µM
TGI [32]: > 100 µM
TGI [33]: > 100 µM
TGI [34]: > 100 µM
TGI [35]: > 100 µM
TGI [36]: 51.5 µM
TGI [37]: > 100 µM
TGI [38]: > 100 µM
TGI [39]: > 100 µM
TGI [40]: > 100 µM
TGI [41]: > 100 µM
TGI [42]: > 100 µM
TGI [43]: > 100 µM
TGI [44]: > 100 µM
TGI [45]: > 100 µM
TGI [46]: > 100 µM
TGI [47]: > 100 µM
TGI [48]: 63.1 µM
TGI [49]: > 100 µM
TGI [50]: > 100 µM
TGI [51]: > 100 µM
TGI [52]: > 100 µM
TGI [53]: > 100 µM
TGI [54]: > 100 µM
TGI [55]: > 100 µM
TGI [56]: > 100 µM
TGI [57]: > 100 µM
TGI [58]: > 100 µM
